What was measured:
[1] = system: A549 human lung cancer cells; assay: Annexin V / propidium iodide apoptosis staining; assay type: cell-based; set-up: dose or concentration left out as unconfirmed
Protocol: A549 human lung cancer cells in a 96-well plate (Costar 3603, 5,000/well) were treated with either A) DMSO as a control; B) […] (−)-trans-3-(5,6-dihydro-4H-pyrrolo[3,2,1-ij]quinolin-1-yl)-4-(1H-indol-3-yl)pyrrolidine-2,5-dione for 38 hours before addition of 1:200 fluorescent Annexin V (green) and 1:500 Propidium iodide (magenta, final concentration of […]). The labeling procedure was allowed to process at 37° C. for 20 minutes followed by image acquisition and analysis using an IC100 Image Cytometer (Beckman Coulter, Inc) with 10× amplification. To determine whether (−)-trans-3-(5,6-dihydro-4H-pyrrolo[3,2,1-ij]quinolin-1-yl)-4-(1H-indol-3-yl)pyrrolidine-2,5-dione works primarily through a cytostatic or apoptotic mechanism, cancer cells exposed to (−)-trans-3-(5,6-dihydro-4H-pyrrolo[3,2,1-ij]quinolin-1-yl)-4-(1H-indol-3-yl)pyrrolidine-2,5-dione were stained with fluorescently labeled Annexin V (green fluorescence) and propidium iodide (bright magenta fluorescence). Annexin V is a well-validated reagent that specifically binds with high affinity to externalized membrane phosphatidylserine, an early marker of the onset of apoptosis, while propidium iodide is a marker for dead cells. […] (See, FIG. 6)

phospho-c-Met = biological target: T1, phospho-c-Met (Homo sapiens, UniProt P08581); assay: Phospho-c-Met in HT-29 xenograft tumors (immunohistochemistry, Western blotting); assay type: in vivo, mice; details: single dose 300 mg/kg, 24 hours later
T1 construct: from tissue; host or cells: HT-29 xenograft tumour in mice
T1 sequence (P08581 25-1390): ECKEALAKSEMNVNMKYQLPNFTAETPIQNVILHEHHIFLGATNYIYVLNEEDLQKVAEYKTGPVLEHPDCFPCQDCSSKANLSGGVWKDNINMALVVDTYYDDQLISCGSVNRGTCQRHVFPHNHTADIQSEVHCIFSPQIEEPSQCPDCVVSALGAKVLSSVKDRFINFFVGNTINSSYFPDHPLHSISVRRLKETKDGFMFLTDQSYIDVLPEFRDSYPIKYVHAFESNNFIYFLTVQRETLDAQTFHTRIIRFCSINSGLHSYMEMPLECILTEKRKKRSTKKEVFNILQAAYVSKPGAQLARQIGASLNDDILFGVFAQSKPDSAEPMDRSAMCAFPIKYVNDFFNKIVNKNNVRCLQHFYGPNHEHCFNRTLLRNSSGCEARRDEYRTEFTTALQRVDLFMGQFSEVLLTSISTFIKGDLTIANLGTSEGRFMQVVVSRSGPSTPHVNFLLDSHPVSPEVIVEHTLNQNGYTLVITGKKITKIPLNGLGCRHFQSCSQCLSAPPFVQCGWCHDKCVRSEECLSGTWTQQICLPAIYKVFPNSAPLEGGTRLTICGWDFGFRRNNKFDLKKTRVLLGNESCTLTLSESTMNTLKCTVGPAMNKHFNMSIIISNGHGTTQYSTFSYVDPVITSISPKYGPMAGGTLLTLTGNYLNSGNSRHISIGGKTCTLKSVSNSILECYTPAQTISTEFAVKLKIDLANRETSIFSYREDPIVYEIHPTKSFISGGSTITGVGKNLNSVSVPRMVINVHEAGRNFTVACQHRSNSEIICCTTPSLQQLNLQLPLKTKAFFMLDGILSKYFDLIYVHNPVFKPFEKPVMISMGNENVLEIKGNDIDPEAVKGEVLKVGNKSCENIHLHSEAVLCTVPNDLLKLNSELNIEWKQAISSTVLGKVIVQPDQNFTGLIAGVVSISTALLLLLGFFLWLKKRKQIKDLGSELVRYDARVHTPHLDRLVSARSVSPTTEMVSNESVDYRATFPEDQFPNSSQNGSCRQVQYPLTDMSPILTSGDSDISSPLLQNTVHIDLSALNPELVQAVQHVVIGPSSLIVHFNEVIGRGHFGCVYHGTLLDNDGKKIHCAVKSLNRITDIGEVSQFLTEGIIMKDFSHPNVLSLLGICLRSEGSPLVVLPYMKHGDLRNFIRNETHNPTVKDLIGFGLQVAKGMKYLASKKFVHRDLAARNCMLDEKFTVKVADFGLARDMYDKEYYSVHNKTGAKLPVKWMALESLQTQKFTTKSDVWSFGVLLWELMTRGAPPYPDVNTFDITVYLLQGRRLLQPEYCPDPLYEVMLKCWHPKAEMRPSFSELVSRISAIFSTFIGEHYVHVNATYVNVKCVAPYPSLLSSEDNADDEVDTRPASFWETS
Protocol: A human colon cancer xenograft model with HT-29 human colon cancer cells was established as described in Example 23. The tumor-bearing mice were treated with a single dose of (−)-trans-3-(5,6-dihydro-4H-pyrrolo[3,2,1-ij]quinolin-1-yl)-4-(1H-indol-3-yl)pyrrolidine-2,5-dione (300 mg/kg). The reduction of phospho-c-Met was detected immunohistochemically 24 hours later. […] Western blotting of the tumor sample for phospho-c-Met confirmed the immunohistochemical analysis (FIG. 11, Panel B).

[2] = system: Human cancer cell lines expressing c-Met and/or phospho-c-Met; assay: Cytotoxicity MTS assay; assay type: cell-based; details: 0.03 to 30 μM
Protocol: Various cancer cell lines were treated with (−)-trans-3-(5,6-dihydro-4H-pyrrolo[3,2,1-ij]quinolin-1-yl)-4-(1H-indol-3-yl)pyrrolidine-2,5-dione at indicated concentrations ranging from 0.03 to 30 μM. The sensitivity of these cells to (−)-trans-3-(5,6-dihydro-4H-pyrrolo[3,2,1-ij]quinolin-1-yl)-4-(1H-indol-3-yl)pyrrolidine-2,5-dione was measured by a standard cytoxicity MTS assay (FIG. 10). Human cancer cell lines expressing c-Met and/or phospho-c-Met were sensitive to (−)-trans-3-(5,6-dihydro-4H-pyrrolo[3,2,1-ij]quinolin-1-yl)-4-(1H-indol-3-yl)pyrrolidine-2,5-dione.

CAMKIIδ = CAMKIIδ (Homo sapiens, UniProt Q13557); assay: Kinase panel inhibition, CAMKIIδ; assay type: biochemical
Protocol: (§1) (−)-trans-3-(5,6-dihydro-4H-pyrrolo[3,2,1-ij]quinolin-1-yl)-4-(1H-indol-3-yl)pyrrolidine-2,5-dione was assessed for its activity to inhibit a large panel (n=230) of human kinases.

Pim-1 = Pim-1 (Homo sapiens, UniProt P11309); assay: Kinase panel inhibition, Pim-1; assay type: biochemical
Sequence of Pim-1 (P11309 whole entry): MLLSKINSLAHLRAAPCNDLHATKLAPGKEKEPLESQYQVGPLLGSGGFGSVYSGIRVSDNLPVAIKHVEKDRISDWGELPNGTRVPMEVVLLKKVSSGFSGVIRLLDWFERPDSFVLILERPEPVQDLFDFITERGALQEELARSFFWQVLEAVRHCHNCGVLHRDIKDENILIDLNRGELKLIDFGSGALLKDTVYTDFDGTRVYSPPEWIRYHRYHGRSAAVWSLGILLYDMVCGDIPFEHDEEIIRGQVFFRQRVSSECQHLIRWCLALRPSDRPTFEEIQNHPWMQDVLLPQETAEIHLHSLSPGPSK
Protocol: as §1

[3] = system: human gastric cancer MKN45; assay: Human gastric cancer xenograft; assay type: in vivo; details: monotherapy
Protocol: (§2) The efficacy of (−)-trans-3-(5,6-dihydro-4H-pyrrolo[3,2,1-ij]quinolin-1-yl)-4-(1H-indol-3-yl)pyrrolidine-2,5-dione was also tested in xenograft models with several other cancer cell lines: human pancreatic cancer MIA PaCa2 (FIG. 9, Panel B), human prostate cancer PC3 (FIG. 9, Panel C) and human gastric cancer MKN45 (FIG. 9, Panel D). The cells were treated with (−)-trans-3-(5,6-dihydro-4H-pyrrolo[3,2,1-ij]quinolin-1-yl)-4-(1H-indol-3-yl)pyrrolidine-2,5-dione as a monotherapy at indicated concentrations.

[4] = system: HT-29 human colon cancer cells; assay: Human colon cancer xenograft; assay type: in vivo, female athymic nude mice; details: for optimal tumor growth inhibition: 20 treatments
Protocol: In a human colon cancer xenograft model HT-29 human colon cancer cells were inoculated subcutaneously into female athymic nude mice (5×10^6 cells/mouse) and allowed to form palpable tumors. Once the tumors reached approximately 60 mm^3, the animals were treated orally with either (−)-trans-3-(5,6-dihydro-4H-pyrrolo[3,2,1-ij]quinolin-1-yl)-4-(1H-indol-3-yl)pyrrolidine-2,5-dione at 200 mg/kg or 300 mg/kg, or vehicle control daily (5 consecutive days, followed by a 2 day dosing holiday). (−)-trans-3-(5,6-dihydro-4H-pyrrolo[3,2,1-ij]quinolin-1-yl)-4-(1H-indol-3-yl)pyrrolidine-2,5-dione was formulated in PEG 400:20% Vitamin E TPGS (60:40). The animals received a total of 20 treatments of either (−)-trans-3-(5,6-dihydro-4H-pyrrolo[3,2,1-ij]quinolin-1-yl)-4-(1H-indol-3-yl)pyrrolidine-2,5-dione or vehicle control. Tumors were measured throughout treatment and the post-treatment observation period. Each point represents the mean±SEM often tumors. (See, FIG. 9, Panel A)

[5] = system: human prostate cancer PC3; assay: Human prostate cancer xenograft; assay type: in vivo; details: monotherapy
Protocol: as §2

IC50 (CAMKIIδ): ~10 µM | IC50 (Pim-1): 10 µM | inhibition at 10 µM (Pim-1; 10 μM): 33%
Structure (SMILES): O=C1NC(=O)[C@@H](c2cn3c4c(cccc24)CCC3)[C@@H]1c1c[nH]c2ccccc12 (single isomer, unassigned) [(−)-trans-3-(5,6-dihydro-4H-pyrrolo[3,2,1-ij]quinolin-1-yl)-4-(1H-indol-3-yl)pyrrolidine-2,5-dione]
apoptosis (Annexin V staining) [1]: induced cells to undergo apoptosis | cells co-stained with both Annexin V and propidium iodide (dead cells) [1]: 10-20% | amount of phospho-c-Met in tumor (phospho-c-Met): significant decrease in the amount of phospho-c-Met | sensitivity (cytotoxicity MTS assay) [2]: sensitive | tumor growth [3]: significantly inhibited tumor growth | optimal tumor growth inhibition ([4]; 200 mg/kg orally, p=0.006): 39% | optimal tumor growth inhibition ([4]; 300 mg/kg orally, p=0.00001): 55% | change in body weight ([4]; oral administration at 200 mg/kg or 300 mg/kg): no significant change in body weight | tumor growth [5]: significantly inhibited tumor growth
